From patent US20200352912A1, “ANTIMICROBIAL COMPOSITIONS AND METHODS OF USING THE SAME” (The Board Of Supervisors Of Louisiana State University And …, priority 2018, published 2020)

Experiments:
S. aureus NRS383 = test: growth inhibition kinetics; type: cell-based, Staphylococcus aureus
Procedure: Growth of S. aureus NRS383 was monitored for up to 24 h in medium alone or supplemented with DMSO or 50 μg/ml L-161, 982. After 6 h of coincubation, fresh L-161, 982 was added to growth medium (*). Data shown are representative of three independent experiments.
We next investigated the kinetics of growth inhibition kinetics by L-161, 982 against S. aureus and drug stability. The minimum inhibitory concentration (MIC) of L-161, 982 against planktonic S. aureus was 50 μg/ml while the […] was 100 μg/ml. […] To address whether the loss of inhibition was due to drug degradation over time (half-life), or to adaptation of S. aureus cells to L-161, 982, fresh L-161, 982 (50 μg/ml) was added during the co-incubation.

E. faecium = test: spectrum of activity, bacterial growth; type: cell-based; conditions: 50 μg/ml, 6 h
Procedure: (§1) Bacterial growth was monitored for 6 h in medium alone or supplemented with 50 μg/ml of L-161, 982. Data shown is representative of three independent experiments.
(§2) Strains and growth conditions. The methicillin-resistant S. aureus strain NRS383 used in all experiments was obtained from the Network on Antimicrobial Resistance in S. aureus (NARSA) data bank. NRS383 is positive for the toxic shock syndrome toxin (tst) and 6-toxin genes. SJ-MRSA 6 and SJ-SA5 are methicillin-resistant (MRSA) and methicillin-sensitive (MSSA) clinical S. aureus strains respectively isolated from a patient's catheter. Other bacterial species used in this study include Escherichia coli (ATCC 25922, clinical isolate), S. epidermidis (ATCC 12228), Klebsiella pneumonia (ATCC 43816), Enterococcus faecalis (ATCC 51299, clinical isolate), and Streptococcus mutans (UA159, 12). S. mutans strain was maintained in brain heart infusion (BHI) broth while the other bacterial species were maintained in Luria-Bertani broth. Frozen stocks were obtained at −80° C. and streaked onto agar plates at 37° C. prior to use. A single colony was transferred to 10 ml of culture broth and shaken at 37° C. overnight. On the following day, the overnight culture was diluted 1:100 in fresh growth medium and shaken at 37° C. for 3 h to obtain cells in mid-log growth phase. S. mutans cultures were grown without agitation in the presence of 5% CO2.
(§3) The spectrum of activity of L-161, 982 was investigated by testing several Gram-positive and Gram-negative bacteria.

K. pneumoniae = test: spectrum of activity, bacterial growth; type: cell-based; conditions: 50 μg/ml, 6 h
Procedure: as §1, §2, §3

S. epidermidis = test: spectrum of activity, bacterial growth; type: cell-based; conditions: 50 μg/ml, 6 h
Procedure: as §1, §2, §3

Streptococcus mutans = test: spectrum of activity, bacterial growth; type: cell-based; conditions: 50 μg/ml, 6 h
Procedure: as §1, §2, §3

[1] = system: C. albicans pre-formed biofilm; test: pre-formed mature biofilm (XTT, CFU); type: cell-based, Candida albicans; conditions: all concentrations tested, 24 h treatment
Procedure: The effect of L-161, 982 on pre-formed mature biofilms was tested. Mono- and dual-species C. albicans and/or S. aureus biofilms were grown on 96-well plates for 24 h before being treated with the indicated concentration of L-161, 982 for a further 24 h. After treatment, metabolic activity of biofilms was quantified by the XTT assay (A) and then biofilms were disrupted to determine live colony forming units (CFU) (B). The results are cumulative of three independent experiments with duplicate samples. Statistics were performed using One-way ANOVA with the Tukey post-hoc test for the XTT assay. The Mann-Whitney U test was used to analyze CFU data. Significance is indicated as follows: ns—not significant, *P<0.05; *** P<0.001. Error bars represent standard deviation.
Following growth as described above, microbes were washed in phosphate-buffered saline (PBS) by centrifugation, counted on a hemocytometer, and adjusted to 2×10^7 CFU/ml in RPMI buffered with MOPS (165 mM). […]
The XTT reduction assay was used to determine the metabolic activity of biofilms following treatment with L-161, 982 (17). Briefly, wells were washed once in PBS, and plates incubated at 37° C. for 2 h with 200 μl XTT working reagent (0.5 mg/ml XTT and 1 μM Menadione) and the resulting absorbance measured at 490 nm on a microplate spectrophotometer. […]

S. aureus = test: cell membrane integrity by viability (Live/Dead) staining; type: cell-based, Staphylococcus aureus; conditions: 6 h incubation
Text: To determine the mechanism of action of L-161, 982 against growth of Gram-positive bacteria, we first looked at its effect on cell membrane integrity using viability staining. […] A previous study had reported that the inhibitory effect of L-161, 982 on the proliferation of skeletal muscle myoblasts was due to its ability to induce production of high levels of intracellular reactive oxygen species (ROS) that could be reversed by co-treatment with the antioxidants, N-acetyl cysteine or sodium ascorbate (25).
Although the prostanoid pathway is not conserved in prokaryotes, we questioned whether L-161, 982 inhibited S. aureus growth by increasing intracellular ROS production. […] Future studies will examine other possible mechanisms of action.

[2] = system: PGE2-stimulated bone formation; conditions: 10 mg/kg/day, young rats; cited from earlier work

With `CCCCc1nn(-c2ccccc2C(F)(F)F)c(=O)n1Cc1ccc(-c2ccccc2S(=O)(=O)NC(=O)c2sccc2C)cc1` [L-161, 982, N-[[4′-[[3-Butyl-1,5-dihydro-5-oxo-1-[2-(trifluoromethyl)phenyl]-4H-1,2,4-triazol-4-yl]methyl][1,1′-biphenyl]-2-yl]sulfonyl]-3-methyl-2-thiophenecarboxamide] the “inhibition when fresh L-161, 982 is added during co-incubation” value (S. aureus NRS383; 50 μg/ml, fresh 50 μg/ml after 6 h) was “maintained inhibition over a 24 h period”, the “duration of inhibitory effect on S. aureus” value (S. aureus NRS383; at the MIC of 50 μg/ml) was at most 8 h and the growth inhibitory activity (E. faecium) was “No inhibitory effects”. The growth inhibitory activity (K. pneumoniae) was “No inhibitory effects”, the growth inhibitory activity (S. epidermidis) was “restricted to Gram-positive bacteria that included S. epidermidis and Streptococcus mutans” and the growth inhibitory activity (Streptococcus mutans) was “restricted to Gram-positive bacteria that included S. epidermidis and Streptococcus mutans”. For the same compound, the “metabolic activity of pre-formed biofilm” value [1] was “no significant inhibitory effects”, the cell membrane damage (S. aureus) was “no evidence of cell membrane damaged” and the “effect on PGE2-stimulated bone formation” value [2] was “suppresses”.
